Like-named read-outs stand apart in the source and are kept apart here.
Tests used:
[1] = system: small cell lung cancer H526; test: in vitro cytotoxicity, PrestoBlue assay; format: cell-based, human
[2] = system: human lymphoblastic leukemia cell line (CCRF-CEM); test: in vitro cytotoxicity, PrestoBlue assay; format: cell-based; conditions: read-out: IC50 CCRF-CEM
Experimental: (§1) All representative compounds of Formulae (I-A) and (I-B) were first evaluated for their in vitro cytotoxicity to human lymphoblastic leukemia cell line (CCRF-CEM) and its vinblastine-resistant sub-cell line (CCRF-CEM/VBL) (see Table 1).
(§2) After a 72-hr incubation in various concentrations of the newly synthesized compounds, the cytotoxic effects of them to all cell lines were determined by the PrestoBlue®(Invitrogen) assay using a microplate spectrophotometer. Briefly, at the end of treatment, an aliquot of PrestoBlue® solution was added and then cells were incubated at 37° C. for 1-2 hr. The absorbance at 570 and 600 nm was measured with a microplate reader. […] The ICso is defined by the concentration required to inhibit tumor cell growth by 50%. Data represent the mean±STDEV of three to six independent experiments for each compound.

[3] = system: pancreatic cancer PacaS1; test: in vitro cytotoxicity, PrestoBlue assay; format: cell-based, human; conditions: Table 2
Experimental: as §1, §2

[4] = system: vinblastine-resistant sub-cell line (CCRF-CEM/VBL); test: in vitro cytotoxicity, PrestoBlue assay; format: cell-based, human; conditions: for IC50: read-out: IC50 CEM/VBL; for resistance factor (IC50 CEM/VBL vs IC50 of the parent cell line): number in brackets
Experimental: as §1, §2

[5] = system: colon cancer HCT-116; test: in vitro cytotoxicity, PrestoBlue assay; format: cell-based, human; conditions: Table 2
Experimental: as §1, §2

[6] = system: non-small cell lung cancer H460; test: in vitro cytotoxicity, PrestoBlue assay; format: cell-based, human; conditions: Table 2
Experimental: as §1, §2

[7] = system: pEGFP-N1 plasmid DNA; test: DNA cross-linking, alkaline agarose gel electrophoresis; format: biochemical; conditions: 1-20 μM, 37° C., 2 hrs; FIG. 1
Experimental: In the present example, BO-2590, BO-2577 (Formula I-A) and BO-2698, BO-2755, BO-2762 and BO-2768 (Formula I-B) were tested for their DNA crosslinking activity, in which the cross-linking was analyzed by alkaline agarose gel electrophoresis. In brief, purified pEGFP-N1 plasmid DNA (1,500 ng) was mixed with various concentrations (1-20 μM) of the tested compounds in 40 μL binding buffer (3 mM sodium chloride/1 mM sodium phosphate, pH 7.4, and 1 mM EDTA). The reaction mixture was incubated at 37° C. for 2 hrs. At the end of reaction, the plasmid DNA was linearized by digestion with BamHI and followed by precipitation with ethanol. The DNA pellets were dissolved and denatured in alkaline buffer (0.5 N NaOH-10mM EDTA). An aliquot of 20 μL of DNA solution (1,000 ng) was mixed with 4 μL of 6× alkaline loading dye and then electrophoretically resolved on a 0.8% alkaline agarose gel with NaOH-EDTA buffer at 4° C. The electrophoresis was carried out at 18V for 22 h. After staining the gels with an ethidium bromide solution, the DNA was visualized under UV light. Results are illustrated in FIG. 1.

[8] = system: H1417; test: in vitro cytotoxicity to SCLC cells; format: cell-based, human; conditions: Table 3
Experimental: as §2

[9] = system: H82; test: in vitro cytotoxicity to SCLC cells; format: cell-based, human; conditions: Table 3
Experimental: as §2

[10] = system: H146; test: in vitro cytotoxicity to SCLC cells; format: cell-based, human; conditions: Table 3
Experimental: as §2

[11] = system: H211; test: in vitro cytotoxicity to SCLC cells; format: cell-based, human; conditions: Table 3
Experimental: as §2

[12] = molecular target: T1, VEGFR-2 (Homo sapiens, UniProt P35968); test: VEGFR-2 activation, western blotting in EA.hy926 cells; format: cell-based; conditions: EA.hy926 cells, 12 hr; FIG. 3
T1 construct: endogenous in cells; host or cells: EA.hy926 endothelial cells
T1 sequence (P35968 20-1356): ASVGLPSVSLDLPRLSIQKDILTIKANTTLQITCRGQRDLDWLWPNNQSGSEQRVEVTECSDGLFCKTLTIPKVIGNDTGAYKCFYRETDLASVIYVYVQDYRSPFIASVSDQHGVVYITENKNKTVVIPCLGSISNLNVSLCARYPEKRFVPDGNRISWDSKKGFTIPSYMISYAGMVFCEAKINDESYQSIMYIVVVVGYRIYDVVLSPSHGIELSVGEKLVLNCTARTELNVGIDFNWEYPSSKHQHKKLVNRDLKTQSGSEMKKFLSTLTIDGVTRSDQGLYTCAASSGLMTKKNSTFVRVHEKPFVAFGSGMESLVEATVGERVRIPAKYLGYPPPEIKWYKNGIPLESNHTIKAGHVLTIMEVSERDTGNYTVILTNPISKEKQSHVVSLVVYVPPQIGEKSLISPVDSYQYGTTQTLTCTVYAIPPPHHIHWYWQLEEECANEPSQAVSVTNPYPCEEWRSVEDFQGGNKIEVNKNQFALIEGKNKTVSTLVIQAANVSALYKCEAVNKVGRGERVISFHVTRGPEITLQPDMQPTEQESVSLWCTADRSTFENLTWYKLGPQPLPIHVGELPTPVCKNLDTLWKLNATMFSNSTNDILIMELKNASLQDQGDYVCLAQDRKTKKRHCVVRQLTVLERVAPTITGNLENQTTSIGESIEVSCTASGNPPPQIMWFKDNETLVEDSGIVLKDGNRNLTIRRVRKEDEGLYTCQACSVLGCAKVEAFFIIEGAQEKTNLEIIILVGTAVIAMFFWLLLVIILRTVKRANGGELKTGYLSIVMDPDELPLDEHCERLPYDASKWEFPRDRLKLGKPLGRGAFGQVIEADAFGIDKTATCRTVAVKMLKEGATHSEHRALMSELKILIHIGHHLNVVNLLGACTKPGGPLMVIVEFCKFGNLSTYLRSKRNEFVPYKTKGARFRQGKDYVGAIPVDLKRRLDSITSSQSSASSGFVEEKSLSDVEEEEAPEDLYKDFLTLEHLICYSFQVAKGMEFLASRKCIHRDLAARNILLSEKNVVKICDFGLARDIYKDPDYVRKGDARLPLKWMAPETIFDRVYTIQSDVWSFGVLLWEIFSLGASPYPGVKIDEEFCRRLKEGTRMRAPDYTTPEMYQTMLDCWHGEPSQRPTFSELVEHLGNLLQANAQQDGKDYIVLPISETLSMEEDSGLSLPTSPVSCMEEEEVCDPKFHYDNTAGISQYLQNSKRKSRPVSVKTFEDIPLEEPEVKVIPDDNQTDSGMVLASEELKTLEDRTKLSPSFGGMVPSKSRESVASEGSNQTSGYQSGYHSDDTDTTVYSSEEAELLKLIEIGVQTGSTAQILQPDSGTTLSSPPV
Experimental: In the present example, BO-2590 and BO-2577 were subject to the test of their activity in suppressing VEGFR-2 by western blotting analysis. Briefly, the endothelial EA.hy926 cells were incubated with BO-2590 or BO-2577 at various concentrations for 12 hr. The primary antibodies, anti-VEGFR-2 and anti-p-VEGFR-2, were used to blot the proteins of total VEGFR-2 and p-VEGFR-2, respectively. Results are illustrated in FIG. 3.

[13] = body weight changes of xenograft-bearing nude mice; format: in vivo; conditions: H526 xenograft mice, micelle formulation; FIG. 12, panel B
Experimental: (§3) Athymic nude mice bearing the nu/nu gene were obtained from the National Laboratory Animal Center (Taipei, Taiwan). Male nude mice (6 weeks or older weighing 20-24 g or more) were used for all human tumor xenografts. The tested compounds were intravenously administered through tail vein. Tumor volume was determined by measuring the length x width x height (or width) with calipers. The vehicle used for the tested compounds was normal saline (0.9% NaCl isotonic solution). For tumor-bearing nude mice during the course of the experiment, the % body weight changes refer to: (the total weight on reading day/the total weight on day treatment started)×100.

[14] = system: human SCLC H526 xenografts; test: tumor growth in xenograft-bearing nude mice; format: in vivo; conditions: micelle formulation (Kolliphor/TWEEN 80/PEG400/ethanol/D5W); BO-2768 at 20 mg/kg twice daily; FIG. 12, panel A
Experimental: as §3, with “The vehicle used for the tested compounds was normal saline (0.9% NaCl isotonic solution).” left out
In all experiments, the tumor cells were subcutaneously implanted in nude mice, and the BO-2590L was administered via tail vein when the tumor size reaching approximate 100 mm^3. […]
To confirm the therapeutic activity of BO-2590L, comparative experiments carried out by known chemotherapeutic agents, such as vatanalib and cisplatin, were also performed. Briefly, the H526 xenograft-bearing mice were divided into 4 groups which were treated with vehicle, BO-2590L (10 mg/kg, QD×9), vatalanib (100 mg/kg, QD×9), and cisplatin (4 mg/kg, Q2D×3), respectively. Results are illustrated in FIG. 11.
Results are illustrated in FIGS. 12 and 13.

[15] = 72-hr incubation, mean ± STDEV of three to six experiments
[16] = Homo sapiens, CCRF-CEM, 72-hr incubation, mean ± STDEV of three to six experiments

Structure (SMILES)	melting point [°C]	IC50 Paca SI [3] [nM]	resistance factor (IC50 CEM/VBL vs IC50 of the parent cell line) [4] [×]	formation of DNA interstrand crosslinks [7]	IC50 ([1]; Table 3, read-out: IC50 H526) [nM]	IC50 [2, 15] [nM]	IC50 [4, 15] [nM]	IC50 [8] [nM]	IC50 [9] [nM]	IC50 [10] [nM]	IC50 [11] [nM]	also measured
Cc1c(CO)c(CO)c2c3ccccc3c(N3CCCC3)nn12 [BO-2686, (3-Methyl-6-(pyrrolidin-1-yl)pyrrolo[2,1-a]phthalazine-1,2 diyl)dimethanol]	160 to 162	11730 ± 1160	0.51	–	–	–	–	–	–	–	–	IC50 ([1]; Homo sapiens, NCI-H526, read-out: IC50 H526): 300 ± 40 nM; IC50 ([2]; Homo sapiens, CCRF-CEM, 72 h): 920 ± 70 nM; IC50 ([4]; Homo sapiens, CCRF-CEM, 72 h): 470 ± 50 nM; IC50 ([5]; Homo sapiens, HCT-116): 3960 ± 60 nM; IC50 ([6]; Homo sapiens, NCI-H460): 3870 ± 730 nM
Cc1c(CO)c(CO)c2c3cc4ccccc4cc3c(N3CCOCC3)nn12 [BO-2698]	–	880 ± 260	0.86	induced DNA interstrand crosslinks	90 ± 60	380 ± 50	330 ± 30	370 ± 10	400 ± 160	1020 ± 160	220 ± 70	IC50 ([1]; Table 2, read-out: IC50 H526): 40 ± 10 nM; IC50 [5]: 1130 ± 20 nM; IC50 [6]: 1180 ± 100 nM
CCc1c(CO)c(CO)c2c3ccccc3c(N3CCOCC3)nn12 [BO-2577, (3-Ethyl-6-morpholinopyrrolo[2,1-a]phthalazine-1,2-diyl)-dimethanol]	180 to 182	13020 ± 930	0.84	induced DNA interstrand crosslinks	–	–	–	–	–	–	–	p-VEGFR-2 protein levels [12]: marked suppression in p-VEGFR-2 protein levels; total protein levels of VEGFR-2 [12]: did not significantly change the total protein levels of VEGFR-2; IC50 ([1]; Homo sapiens, NCI-H526, Table 2, read-out: IC50 H526): 750 ± 120 nM; IC50 [2, 16]: 3040 ± 380 nM; IC50 [4, 16]: 2550 ± 120 nM; IC50 ([5]; Homo sapiens, HCT-116): 11500 ± 1660 nM; IC50 ([6]; Homo sapiens, NCI-H460): 18570 ± 180 nM
Cc1c(CO)c(CO)c2c3cc4ccccc4cc3c(N3CCCCC3)nn12 [BO-2755]	–	10010 ± 1640	1.26	induced DNA interstrand crosslinks	220 ± 60	800 ± 90	1010 ± 110	1370 ± 30	1480 ± 660	2650 ± 1390	800 ± 330	IC50 ([1]; Table 2, read-out: IC50 H526): 120 ± 40 nM; IC50 [5]: 4130 ± 270 nM; IC50 [6]: 3030 ± 480 nM
Cc1c(CO)c(CO)c2c3cc4ccccc4cc3c(N3CCC(N4CCCCC4)CC3)nn12 [BO-2792]	–	–	1.51	–	3 ± 3	17 ± 9	25 ± 5	250 ± 50	40 ± 10	200 ± 150	20 ± 20	deleterious effects on the bodyweight of the test animals [13]: none; tumor size [14]: as effective as irinotecan and cisplatin in reducing the tumor size
CCNC(=O)OCc1c(COC(=O)NCC)c2c3ccccc3c(N3CCCC3)nn2c1C [BO-2716, (3-Methyl-6-(pyrrolidin-1-yl)pyrrolo[2,1-a]phthalazine-1,2-diyl)-bis(methylene) bis(ethylcarbamate)]	140 to 142	–	1.47	–	–	–	–	–	–	–	–	IC50 ([2]; Homo sapiens, CCRF-CEM, 72 h): 1420 ± 90 nM; IC50 ([4]; Homo sapiens, CCRF-CEM, 72 h): 2100 ± 90 nM
CCc1c2c(nc3ccc(OC(=O)N4CCC(N5CCCCC5)CC4)cc13)-c1cc3c(c(=O)n1C2)COC(=O)[C@]3(O)CC [Irinotecan, reference compound]	–	–	–	–	–	–	–	–	–	–	–	deleterious effects on the bodyweight of the test animals [13]: none; IC50 ([1]; Homo sapiens, NCI-H526, Table 3, read-out: IC50 H526): 590 ± 300 nM; IC50 ([8]; Homo sapiens, NCI-H1417): 9790 ± 840 nM; IC50 ([9]; Homo sapiens, NCI-H82): 2260 ± 10 nM; IC50 ([10]; Homo sapiens, NCI-H146): 11500 ± 6530 nM; IC50 ([11]; Homo sapiens, NCI-H211): 8810 ± 460 nM; tumor size [14]: slowly increased in size
